# Data published in US9624215B2, “Amine derivative or salt thereof” (TOYAMA CHEMICAL CO., LTD., priority 2012, dated 2017).
# Experiments:
# [1] = tested on: TNFα production in LPS-stimulated Raw264.7 cells; experiment: TNFα production inhibition test; format: cell-based; details: Mus musculus, test compound 1 μmol/L, LPS 1 μg/mL, 16 hours, ELISA, read-out: Inhibition rate of TNFα production
# Procedure: 7×10^4 mouse macrophage-derived cell line Raw264.7 cells were suspended in 100 μL of RPMI1640 medium containing 10% fetal bovine serum, plated in a 96-well plate and incubated overnight. The culture supernatant was removed and the test compound diluted in RPMI1640 medium containing 1% fetal bovine serum (final concentration: 1 μmol/L) was added. One hour after the addition, LPS (B4:0111) (Sigma-Aldrich, L2630) was added to a final concentration of 1 μg/mL. 16 hours after the stimulation, the culture supernatant was collected and the amount of TNFα produced in the culture supernatant was determined using ELISA kit (R&D Systems, MTA00B).
# The inhibition rate was calculated from the following formula. Inhibition rate (%)=100−(amount of TNFα produced in the presence of test compound/amount of TNFα produced in the absence of test compound)×100
# [2] = tested on: normal human neonatal foreskin epidermal keratinocytes (NHEK-F); experiment: Cell proliferation inhibition test; format: cell-based; details: Keratinocyte, 72 h, NHEK-F cells, three days incubation, ATPlite or CellTiterGlo, read-out: IC50 (concentration of the compound at which the cell count is reduced by 50%)
# Method in brief: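 NHEK-F keratinocytes, 2×10^3 per well in Humedia-EG2, plated overnight, then exposed to compound for three days. Cell count by ATPlite or CellTiterGlo luminescence; inhibition = 100 − (treated/untreated count)×100, IC50 as 50% reduction concentration.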
# [3] = tested on: TPA-induced ear edema and acanthosis in Balb/c mice; experiment: Mouse TPA-induced ear-swelling model; format: in vivo; details: topical, 240 h, 1% w/v solution, 20 μL applied to ear once a day from day 0 to day 9, female Balb/c mice, read-out: Inhibition rate of change in ear thickness on day 10
# Procedure: Seven-week-old female Balb/c mice (Charles River Laboratories Japan) were used. 20 μL of a 20 ng/mL solution of TPA (Wako Pure Chemical Industries, 162-23591) dissolved in 5% DMSO/acetone was applied to the outer side of the mouse ear on day 0, day 2, day 4, day 7 and day 9 to induce ear edema and acanthosis. The test compound was dissolved in a 5% DMSO/acetone solution (concentration: 1% w/v) and 20 μL of the resulting solution was applied to the outer side of the ear once a day from day 0 to day 9. For the control group, a 5% DMSO/acetone solution was similarly applied. The TPA solution and the test compound solution were mixed and applied on the days for TPA application (day 0, day 2, day 4, day 7 and day 9). The ear thickness was chronologically measured on days 0-4 and days 7-10 using a micrometer (Mitutoyo, MDC-25MJT). The change in ear thickness and the inhibition rate were determined by the following formulas. Change in ear thickness=(ear thickness measured on day 10)−(ear thickness measured on day 0 before TPA application) Inhibition rate (%)=100−(change in ear thickness for test compound group/change in ear thickness for control group)×100
SMILES,inhibition at 1 µM [1] [%],IC50 [2] [nM],inhibition in vivo at 1 % strength [3] [%]
"O=C(O)c1cc(Cl)ccc1Nc1ccc2c(ccn2Cc2ccccc2)c1 [Example 2, 2-((1-benzyl-1H-indol-5-yl)amino)-5-chlorobenzoic acid]",≥ 50,≤ 10,
"O=C(O)c1cc(Cl)ccc1Nc1cnc2c(ccn2Cc2ccccc2)c1 [Example 11, 2-((1-benzyl-1H-pyrrolo(2,3-b)pyridin-5-yl)amino)-5-chlorobenzoic acid]",≥ 50,10 to 100,
"O=C(O)c1cc(Cl)ccc1Nc1ccc2c(ccn2Cc2cccc(N3CCOCC3)c2)c1 [Example 14, 5-chloro-2-((1-(3-morpholinobenzyl)-1H-indol-5-yl)amino)benzoic acid]",≥ 50,≤ 10,
"O=C(O)c1cc(Cl)ccc1Nc1ccc2c(ccn2Cc2cccc(O)c2)c1 [Example 17, 5-chloro-2-((1-(3-hydroxybenzyl)-1H-indol-5-yl)amino)benzoic acid]",≥ 50,≤ 10,
"O=C(O)c1cc(Cl)ccc1Nc1ccc2c(cnn2Cc2ccccc2)c1 [Example 21, 2-((1-benzyl-1H-indazol-5-yl)amino)-5-chlorobenzoic acid]",≥ 50,≤ 10,
"O=C(O)c1cc(C2CC2)ccc1Nc1cnc2c(ccn2Cc2ccccc2)c1 [Example 27, 2-((1-benzyl-1H-pyrrolo(2,3-b)pyridin-5-yl)amino)-5-cyclopropylbenzoic acid]",≥ 50,≤ 10,
"O=C(O)c1cc(C2CC2)ccc1Nc1ccc2c(ccn2-c2ccccc2)c1 [Example 59, 5-cyclopropyl-2-((1-phenyl-1H-indol-5-yl)amino)benzoic acid]",≥ 50,≤ 10,
"O=C(O)c1cc(Cl)ccc1Nc1ccc2c(c1)oc(=O)n2Cc1ccccc1 [Example 61, 2-((3-benzyl-2-oxo-2,3-dihydrobenzo[d]oxazol-6-yl)amino)-5-chlorobenzoic acid]",≥ 50,10 to 100,
"O=C(O)c1cc(Cl)ccc1Nc1ccc2c(c1)[nH]c(=O)n2Cc1ccccc1 [Example 63, 2-((1-benzyl-2-oxo-2,3-dihydro-1H-benzo[d]imidazol-5-yl)amino)-5-chlorobenzoic acid]",≥ 50,,
"Cn1c(=O)n(Cc2ccccc2)c2ccc(Nc3ccc(Cl)cc3C(=O)O)cc21 [Example 65, 2-((1-benzyl-3-methyl-2-oxo-2,3-dihydro-1H-benzo[d]imidazol-5-yl)amino)-5-chlorobenzoic acid]",≥ 50,100 to 1000,
"O=C(O)c1cc(Cl)ccc1Nc1ccc2c(c1)sc(=O)n2Cc1ccccc1 [Example 67, 2-((3-benzyl-2-oxo-2,3-dihydrobenzo[d]thiazol-6-yl)amino)-5-chlorobenzoic acid]",≥ 50,10 to 100,
"O=C(O)c1cc(Cl)ccc1Nc1ccc2c(c1)ncc(=O)n2Cc1ccccc1 [Example 69, 2-((1-benzyl-2-oxo-1,2-dihydroquinoxalin-6-yl)amino)-5-chlorobenzoic acid]",≥ 50,100 to 1000,
"O=C(O)c1cc(C2CC2)ccc1Nc1ccc2c(c1)sc(=O)n2Cc1ccccc1 [Example 73, 2-((3-benzyl-2-oxo-2,3-dihydrobenzo[d]thiazol-6-yl)amino)-5-cyclopropylbenzoic acid]",≥ 50,≤ 10,
"Cn1c(=O)n(-c2ccccc2)c2ccc(Nc3ccc(C4CC4)cc3C(=O)O)cc21 [Example 78, 5-cyclopropyl-2-((3-methyl-2-oxo-1-phenyl-2,3-dihydro-1H-benzo[d]imidazol-5-yl)amino)benzoic acid]",≥ 50,10 to 100,
"O=C(O)c1cc(C2CC2)ccc1Nc1ccc2c(c1)n(CC(F)(F)F)c(=O)n2-c1ccccc1 [Example 80, 5-cyclopropyl-2-((2-oxo-1-phenyl-3-(2,2,2-trifluoroethyl)-2,3-dihydro-1H-benzo[d]imidazol-5-yl)amino)benzoic acid]",≥ 50,10 to 100,
"O=C(O)c1cc(C2CC2)ccc1Nc1ccc2c(c1)n(CC1CC1)c(=O)n2-c1ccccc1 [Example 82, 5-cyclopropyl-2-((3-(cyclopropylmethyl)-2-oxo-1-phenyl-2,3-dihydro-1H-benzo[d]imidazol-5-yl)amino)benzoic acid]",≥ 50,10 to 100,

SMILES,inhibition at 1 µM [1] [%],IC50 [2] [nM],inhibition in vivo at 1 % strength [3] [%]
"O=C(O)c1cc(Cl)ccc1Nc1ccc2c(ccn2Cc2cccc(OCC(F)(F)F)c2)c1 [Example 84, 5-chloro-2-((1-(3-(2,2,2-trifluoroethoxyl)benzyl)-1H-indol-5-yl)amino)benzoic acid]",≥ 50,≤ 10,
"O=C(O)c1cc(Cl)ccc1Nc1ccc2c(ccn2CC2CC2)c1 [Example 96, 5-chloro-2-((1-(cyclopropylmethyl)-1H-indol-5-yl)amino)benzoic acid]",≥ 50,10 to 100,
"O=C(O)c1cc(Cl)ccc1Nc1ccc2c(ccn2C2CC2)c1 [Example 98, 5-chloro-2-((1-(cyclopropyl)-1H-indol-5-yl)amino)benzoic acid]",≥ 50,10 to 100,
"Cc1ccc(-n2ccc3cc(Nc4ccc(C5CC5)cc4C(=O)O)ccc32)nn1 [Example 102, 5-cyclopropyl-2-((1-(6-methylpyridazin-3-yl)-1H-indol-5-yl)amino)benzoic acid]",≥ 50,10 to 100,
"O=C(O)c1cc(C2CC2)ccc1Nc1ccc2c(ccn2CC2CC2)c1 [Example 104, 5-cyclopropyl-2-((1-(cyclopropylmethyl)-1H-indol-5-yl)amino)benzoic acid]",≥ 50,≤ 10,
"N#Cc1ccc(-n2ccc3cc(Nc4ccc(C5CC5)cc4C(=O)O)ccc32)cc1 [Example 106-1, 2-((1-(4-Cyanophenyl)-1H-indol-5-yl)amino)-5-cyclopropylbenzoic acid]",≥ 50,,
"NC(=O)c1ccc(-n2ccc3cc(Nc4ccc(C5CC5)cc4C(=O)O)ccc32)cc1 [Example 106-2, 2-((1-(4-Carbamoylphenyl)-1H-indol-5-yl)amino)-5-cyclopropylbenzoic acid]",≥ 50,,
"O=C(O)c1cc(C2CC2)ccc1Nc1ccc2c(c1)CC(=O)N2Cc1ccccc1 [Example 107, 2-((1-benzyl-2-oxoindolin-5-yl)amino)-5-cyclopropylbenzoic acid]",≥ 50,10 to 100,
"O=C(O)c1cc(C2CC2)ccc1Nc1ccc2c(c1)CC(=O)N2CC1CC1 [Example 108, 5-cyclopropyl-2-((1-(cyclopropylmethyl)-2-oxoindolin-5-yl)amino)benzoic acid]",≥ 50,10 to 100,
"O=C(O)c1cc(Cl)ccc1Nc1ccc2c(c1)CCN(Cc1ccccc1)C2=O [Example 265, 2-((2-benzyl-1-oxo-1,2,3,4-tetrahydroisoquinolin-6-yl)amino)-5-chlorobenzoic acid]",≥ 50,,
"O=C(O)c1cc(Cl)ccc1Nc1ccc2c(c1)CCC(=O)N2Cc1ccccc1 [Example 267, 2-((1-benzyl-2-oxo-1,2,3,4-tetrahydroquinolin-6-yl)amino)-5-chlorobenzoic acid]",≥ 50,,
"O=C(O)c1cc(C2CC2)ccc1Nc1ccc2c(c1)CN(Cc1ccccc1)C2=O [Example 287, 2-((2-benzyl-1-oxoisoindolin-5-yl)amino)-5-cyclopropylbenzoic acid]",≥ 50,,
"CCCCCCn1ccc2cc(Nc3ncc(C4CC4)cc3C(=O)O)ccc21 [Example 639, 5-cyclopropyl-2-((1-hexyl-1H-indol-5-yl)amino)nicotinic acid]",,≤ 10,≥ 20
"O=C(O)c1cc(C2CC2)cnc1Nc1ccc2c(ccn2Cc2cc(F)ccc2F)c1 [Example 641, 5-cyclopropyl-2-((1-(2,5-difluorobenzyl)-1H-indol-5-yl)amino)nicotinic acid]",,≤ 10,≥ 20
"O=C(O)c1cc(C2CC2)cnc1Nc1ccc2c(ccn2Cc2cccc(F)c2F)c1 [Example 642, 5-cyclopropyl-2-((1-(2,3-difluorobenzyl)-1H-indol-5-yl)amino)nicotinic acid]",,≤ 10,≥ 20
